Measured values published in ChEMBL document CHEMBL4011610, “Design, synthesis and optimization of 7-substituted-pyrazolo[4,3-b]pyridine ALK5 (activin receptor-like kinase 5) inhibitors” (Bioorg Med Chem Lett, 2017).

Key:
[1] = Hepatic extraction ratio in rat; format: ADME; details: read-out: ERH
TGF-beta receptor type-1 [2] = target: T1, TGF-beta receptor type-1 (Homo sapiens, UniProt P36897); test: Inhibition of ALK5 (unknown origin) expressed in SBE-bla HEK293T cells assessed as decrease in TGFbeta1-induced Smad2/3 phosphorylation by beta lactamase reporter gene assay; format: cell-based
T1 sequence (P36897 whole entry): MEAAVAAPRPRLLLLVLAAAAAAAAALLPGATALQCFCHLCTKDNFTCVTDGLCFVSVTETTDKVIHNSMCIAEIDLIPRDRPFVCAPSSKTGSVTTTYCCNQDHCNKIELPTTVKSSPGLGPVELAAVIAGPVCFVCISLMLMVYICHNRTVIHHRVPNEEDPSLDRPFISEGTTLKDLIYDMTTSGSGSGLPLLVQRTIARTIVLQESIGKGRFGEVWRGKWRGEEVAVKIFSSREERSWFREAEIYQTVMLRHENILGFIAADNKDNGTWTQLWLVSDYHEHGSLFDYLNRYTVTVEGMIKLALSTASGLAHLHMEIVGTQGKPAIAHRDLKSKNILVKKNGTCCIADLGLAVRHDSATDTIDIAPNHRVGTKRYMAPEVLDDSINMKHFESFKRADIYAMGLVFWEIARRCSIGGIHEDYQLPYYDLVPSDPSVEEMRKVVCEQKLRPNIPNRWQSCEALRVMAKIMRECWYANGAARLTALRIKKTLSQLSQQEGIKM

TGF-beta receptor type-1 [3] = target: T1, TGF-beta receptor type-1; test: Inhibition of recombinant N-terminal GST tagged human ALK5 (200 to 503 residues) expressed in baculovirus expression system using FAM-NH2-KVLTQMGSPSIRCSS[PO4]VS peptide as substrate after 90 mins by LanthaScreen TR-FRET assay
Cytochrome P450 3A4 = Cytochrome P450 3A4 (Homo sapiens, UniProt P08684); test: Inhibition of CYP3A4 (unknown origin); format: ADME
Cytochrome P450 3A4, sequence (P08684 whole entry): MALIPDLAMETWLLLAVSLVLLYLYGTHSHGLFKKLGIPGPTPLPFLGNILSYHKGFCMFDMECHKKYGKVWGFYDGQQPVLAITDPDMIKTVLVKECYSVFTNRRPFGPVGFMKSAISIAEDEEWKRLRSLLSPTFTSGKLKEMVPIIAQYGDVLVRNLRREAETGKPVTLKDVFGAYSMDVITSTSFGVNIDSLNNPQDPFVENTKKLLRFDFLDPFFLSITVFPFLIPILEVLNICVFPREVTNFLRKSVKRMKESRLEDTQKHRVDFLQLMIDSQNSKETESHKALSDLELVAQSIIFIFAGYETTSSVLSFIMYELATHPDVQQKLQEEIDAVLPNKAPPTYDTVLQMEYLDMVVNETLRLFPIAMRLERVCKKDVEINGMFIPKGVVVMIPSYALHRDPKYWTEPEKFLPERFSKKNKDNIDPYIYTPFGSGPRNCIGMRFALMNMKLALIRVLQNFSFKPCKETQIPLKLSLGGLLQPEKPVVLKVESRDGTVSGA

hERG (KCNH2) = hERG (KCNH2) (Homo sapiens, UniProt Q12809); test: Inhibition of human ERG expressed in CHOK1 cells at 10 uM by automated whole cell patch clamp Qpatch method relative to control; format: cell-based; details: CHO-K1 cells expressing human ERG
hERG (KCNH2), sequence (Q12809 whole entry): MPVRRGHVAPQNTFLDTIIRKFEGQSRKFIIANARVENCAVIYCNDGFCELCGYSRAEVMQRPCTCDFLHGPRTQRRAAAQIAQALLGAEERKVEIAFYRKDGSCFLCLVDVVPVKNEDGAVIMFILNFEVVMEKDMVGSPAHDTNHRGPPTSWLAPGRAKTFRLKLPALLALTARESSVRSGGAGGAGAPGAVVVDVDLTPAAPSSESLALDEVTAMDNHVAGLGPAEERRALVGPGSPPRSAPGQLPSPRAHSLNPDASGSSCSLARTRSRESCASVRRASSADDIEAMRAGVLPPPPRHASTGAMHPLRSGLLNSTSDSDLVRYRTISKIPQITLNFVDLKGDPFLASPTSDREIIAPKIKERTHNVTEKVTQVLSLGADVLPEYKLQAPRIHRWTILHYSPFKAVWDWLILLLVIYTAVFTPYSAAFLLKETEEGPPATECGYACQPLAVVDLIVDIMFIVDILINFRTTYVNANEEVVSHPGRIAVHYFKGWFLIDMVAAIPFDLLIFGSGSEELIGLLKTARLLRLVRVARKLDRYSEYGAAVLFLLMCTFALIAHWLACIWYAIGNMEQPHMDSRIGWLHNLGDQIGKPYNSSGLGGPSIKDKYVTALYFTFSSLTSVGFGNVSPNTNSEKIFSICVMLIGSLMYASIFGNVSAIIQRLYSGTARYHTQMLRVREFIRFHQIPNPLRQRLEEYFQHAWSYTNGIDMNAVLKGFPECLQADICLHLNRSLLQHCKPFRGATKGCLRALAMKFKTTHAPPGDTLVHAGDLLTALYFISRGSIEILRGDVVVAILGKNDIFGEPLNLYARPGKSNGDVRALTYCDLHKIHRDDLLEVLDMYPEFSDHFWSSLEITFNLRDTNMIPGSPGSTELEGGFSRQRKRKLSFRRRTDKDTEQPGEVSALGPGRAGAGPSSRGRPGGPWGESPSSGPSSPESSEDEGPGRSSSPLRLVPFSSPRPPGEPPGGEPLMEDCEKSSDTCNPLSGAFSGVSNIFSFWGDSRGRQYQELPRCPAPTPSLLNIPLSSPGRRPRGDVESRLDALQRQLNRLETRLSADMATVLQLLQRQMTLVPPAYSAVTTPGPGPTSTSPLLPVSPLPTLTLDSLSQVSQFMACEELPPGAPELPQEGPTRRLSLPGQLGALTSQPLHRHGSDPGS

[4] = Hepatic extraction ratio in human; format: ADME; details: read-out: ERH
[5] = Oral bioavailability in rat; format: ADME, organism-based; details: in vivo
TGF-beta receptor type-1 [6] = target: T1, TGF-beta receptor type-1; test: Inhibition of ALK5 in human Calu6 cells assessed as reduction in Smad2/3 phosphorylation; format: cell-based
[7] = Clearance in human microsomes; format: ADME, Microsome
[8] = Clearance in rat microsomes; format: ADME, Microsome
Cytochrome P450 2C8 = target: T2, Cytochrome P450 2C8 (Homo sapiens, UniProt P10632); test: Inhibition of CYP2C8 (unknown origin); format: ADME
T2 sequence (P10632 whole entry): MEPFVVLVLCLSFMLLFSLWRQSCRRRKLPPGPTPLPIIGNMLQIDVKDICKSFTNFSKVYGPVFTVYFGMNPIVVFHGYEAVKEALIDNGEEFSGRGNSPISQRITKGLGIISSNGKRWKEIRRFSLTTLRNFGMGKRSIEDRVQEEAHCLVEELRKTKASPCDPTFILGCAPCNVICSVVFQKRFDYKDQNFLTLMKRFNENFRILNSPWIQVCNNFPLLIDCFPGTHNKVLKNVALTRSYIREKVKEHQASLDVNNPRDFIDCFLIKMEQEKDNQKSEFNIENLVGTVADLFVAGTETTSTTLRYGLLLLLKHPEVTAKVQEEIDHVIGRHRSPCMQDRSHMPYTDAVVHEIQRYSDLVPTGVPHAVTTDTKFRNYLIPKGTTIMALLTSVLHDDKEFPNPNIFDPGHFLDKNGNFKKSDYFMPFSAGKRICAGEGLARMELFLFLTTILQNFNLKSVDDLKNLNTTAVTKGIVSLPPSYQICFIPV

[9] = Clearance in rat; format: ADME; details: in vivo

| SMILES | hepatic extraction ratio [1] | EC50 (TGF-beta receptor type-1 [2]) | IC50 (TGF-beta receptor type-1 [3]) | hepatic extraction ratio [4] | EC50 (TGF-beta receptor type-1 [6]) | also measured |
| --- | --- | --- | --- | --- | --- | --- |
| NC(=O)Cn1cc2nccc(Nc3ccnc(-c4cc(Cl)ccc4F)c3)c2n1 | 0.54 | 0.1 µM | 0.0126 µM | 0.52 | – | IC50 (Cytochrome P450 3A4): 12.6 µM; inhibition at 10 µM (hERG (KCNH2)): 41 to 59% |
| COc1cccc2nccc(Nc3cc(-c4cc(C)ccc4F)ncc3C)c12 | – | – | 0.0126 µM | – | – | – |
| Fc1ccc(Cl)cc1-c1cc(Nc2ccnc3cn[nH]c23)ccn1 | – | 0.0501 µM | 0.00631 µM | – | – | – |
| COc1cccc2nccc(Nc3ccnc(-c4cc(C)ccc4F)c3)c12 | – | – | 0.0251 µM | – | – | – |
| Cc1ccc(F)c(-c2cc(Nc3ccnc4cnn(C[C@@H](C)O)c34)c(C)cn2)n1 | 0.3 | 0.1 µM | 0.00794 µM | 0.3 | 0.501 µM | bioavailability [5]: 38%; inhibition at 10 µM (hERG (KCNH2)): 42% |
| CCc1cnc(-c2cc(Cl)ccc2F)cc1Nc1ccnc2cccc(OC)c12 | – | – | 0.0251 µM | – | – | – |
| Cc1ccc(F)c(-c2cc(Nc3ccnc4cn[nH]c34)ccn2)c1 | – | – | 0.0158 µM | – | – | – |
| Cc1ccc(F)c(-c2cc(Nc3ccnc4cnn(CCO)c34)c(C)cn2)n1 | – | 0.02 µM | 0.0126 µM | – | – | – |
| COc1cccc2nccc(Nc3cc(-c4cc(Cl)ccc4F)ncc3C)c12 | – | – | 0.0126 µM | – | – | CLint scaled [7]: 5.16 L/h/kg; CLint scaled [8]: 18.1 L/h/kg; inhibition at 10 µM (hERG (KCNH2)): 94% |
| COc1cccc2nccc(Nc3ccnc(-c4cc(Cl)ccc4F)c3)c12 | – | – | 0.02 µM | – | – | – |
| Cc1cccc(-c2cc(Nc3ccnc4cn[nH]c34)c(C)cn2)n1 | – | 0.0316 µM | 0.00501 µM | – | 0.2 µM | – |
| COc1cccc2nccc(Nc3ccnc(-c4nc(C)ccc4F)c3)c12 | – | – | 0.0398 µM | – | – | – |
| Cc1cnc(-c2cc(F)ccc2F)cc1Nc1ccnc2cnn(CC(C)O)c12 (centres undefined) | 0.54 | 0.00794 µM | 0.00316 µM | 0.64 | 0.02 µM | – |
| Cc1ccc(F)c(-c2cc(Nc3ccnc4cn[nH]c34)c(C)cn2)n1 | 0.74 | – | 0.00251 µM | 0.57 | 0.0316 µM | IC50 (Cytochrome P450 2C8): 2.51 µM; IC50 (Cytochrome P450 3A4): 6.31 µM |
| COc1cccc2nccc(Nc3ccnc(-c4cccc(Cl)c4)c3)c12 | – | – | 0.316 µM | – | – | – |
| COc1cccc2nccc(Nc3ccnc(-c4ccccc4)c3)c12 | – | – | 0.631 µM | – | – | – |
| Cc1cnc(-c2cc(Cl)ccc2F)cc1Nc1ccnc2cnn(CC(N)=O)c12 | 0.44 | 0.02 µM | – | 0.54 | 0.0316 µM | clearance [9]: 2.52 L/h/kg; IC50 (Cytochrome P450 3A4): 12.6 µM; bioavailability [5]: 71%; inhibition at 10 µM (hERG (KCNH2)): 41 to 59% |

| SMILES | hepatic extraction ratio [1] | EC50 (TGF-beta receptor type-1 [2]) | IC50 (TGF-beta receptor type-1 [3]) | hepatic extraction ratio [4] | EC50 (TGF-beta receptor type-1 [6]) | also measured |
| --- | --- | --- | --- | --- | --- | --- |
| CCNC(=O)n1ncc2nccc(Nc3ccnc(-c4cc(F)ccc4F)c3)c21 | 0.29 | 0.0316 µM | – | 0.53 | 0.158 µM | – |
| Cc1cnc(-c2cc(F)ccc2F)cc1Nc1ccnc2cn[nH]c12 | 0.84 | 0.00794 µM | – | 0.74 | 0.0316 µM | IC50 (Cytochrome P450 2C8): 0.316 µM; IC50 (Cytochrome P450 3A4): 1.58 µM |
| CNC(=O)n1ncc2nccc(Nc3cc(-c4cc(F)ccc4F)ncc3C)c21 | 0.2 | 0.0251 µM | – | < 0.23 | 0.02 µM | – |
| NC(=O)Cn1ncc2nccc(Nc3ccnc(-c4cc(F)ccc4F)c3)c21 | 0.57 | 0.2 µM | – | 0.53 | 1.26 µM | – |
| CNC(=O)n1ncc2nccc(Nc3cc(-c4cc(Cl)ccc4F)ncc3C)c21 | 0.52 | 0.0316 µM | 0.0158 µM | 0.51 | – | – |
| COc1cccc2nccc(Nc3cc(-c4cccc(Cl)c4)ncc3C)c12 | – | – | 0.0316 µM | – | – | – |
| Fc1ccc(Cl)cc1-c1cc(Nc2ccnc3cnn(CC4CCNCC4)c23)ccn1 | 0.93 | – | – | 0.91 | – | – |
| CNC(=O)n1ncc2nccc(Nc3ccnc(-c4cc(Cl)ccc4F)c3)c21 | 0.31 | 0.0251 µM | 0.00316 µM | 0.57 | 0.0631 µM | – |
| CNC(=O)n1ncc2nccc(Nc3ccnc(-c4cc(F)ccc4F)c3)c21 | 0.27 | 0.02 µM | 0.00251 µM | 0.55 | 0.126 µM | – |
| CCn1cc2nccc(Nc3cc(-c4cc(C)ccc4F)ncc3C)c2n1 | – | 0.0158 µM | 0.01 µM | – | 0.158 µM | – |
| Cc1cnc(-c2cc(F)ccc2F)cc1Nc1ccnc2cn(CC(C)O)nc12 (centres undefined) | 0.68 | 0.126 µM | – | 0.79 | 0.158 µM | – |
| Cc1cnc(-c2cc(Cl)ccc2F)cc1Nc1ccnc2cn(CC(N)=O)nc12 | 0.56 | 0.0126 µM | – | 0.46 | 0.0316 µM | IC50 (Cytochrome P450 3A4): > 50.1 µM; inhibition at 10 µM (hERG (KCNH2)): 41 to 59% |
| Fc1ccc(Cl)cc1-c1cc(Nc2ccnc3cn(CC4CCNCC4)nc23)ccn1 | 0.16 | 1 µM | 0.1 µM | 0.36 | – | – |
| NC(=O)Cn1cc2nccc(Nc3ccnc(-c4cc(F)ccc4F)c3)c2n1 | 0.42 | 0.251 µM | – | 0.44 | 1.58 µM | – |
| COc1cccc2nccc(Nc3cc(-c4cc(Cl)ccc4F)ncc3C3CC3)c12 | – | – | 0.0501 µM | – | – | – |
| Cc1cnc(-c2cc(Cl)ccc2F)cc1Nc1ccnc2cn[nH]c12 | 0.75 | 0.0316 µM | 0.0158 µM | 0.57 | – | IC50 (Cytochrome P450 2C8): 0.398 µM; IC50 (Cytochrome P450 3A4): 3.16 µM |
